Consider 24 molecules from paper PMC6556873, “Rapid Covalent-Probe Discovery by Electrophile-Fragment Screening” (Journal of the American Chemical Society, 2019).

As a reminder, the viability is a read-out of living cells in per cent, often relative to untreated cells.

Data set [1] in a line: in vitro. To be noted: human, hek293 cells. Also noted: species or system HB2, CCD841.
Data set [2] in a line: in vitro. Also noted: species or system HB2, HEK293. As to conditions: human, ccd841 cells.
Data set [3] addresses T1, BSA (Bos taurus, UniProt P02769).
T1 construct: gene ALB
The arrangement: Intact protein LC/MS covalent labelling, fragments in pools of five, 200 uM each, 4 °C. As to conditions: 24 h, 4 °C, pool of five; 200 µM; covalent.

Data set [4] deals with T2, OTUB2 (OTUB2A) (Homo sapiens, UniProt Q96DC9).
T2 construct: full length residues 1-234, E. coli BL21(DE3)-R3, His tag removed by TEV, construct 27312 Da
T2 sequence (Q96DC9 1-234): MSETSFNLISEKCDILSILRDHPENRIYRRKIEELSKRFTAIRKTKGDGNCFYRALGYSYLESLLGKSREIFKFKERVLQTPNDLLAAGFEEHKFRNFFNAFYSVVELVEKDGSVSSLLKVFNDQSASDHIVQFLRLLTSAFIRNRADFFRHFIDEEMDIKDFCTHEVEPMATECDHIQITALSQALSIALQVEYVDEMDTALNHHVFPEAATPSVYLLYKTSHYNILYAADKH
The arrangement: Intact protein LC/MS covalent labelling, fragments in pools of five, 200 uM each, 4 °C. To be noted: 24 h, 4 °C, pool of five; 200 µM; covalent.

The target in data set [5] is T3, PCAF (Homo sapiens, UniProt Q92831).
T3 construct: gene KAT2B
Also noted: Intact protein LC/MS covalent labelling, fragments in pools of five, 200 uM each, 4 °C. As to conditions: 24 h, 4 °C, pool of five; 200 µM; covalent.

Data set [6] has as its target T4, NUDT7 (Homo sapiens, UniProt P0C024).
T4 construct: residues 14-235, E. coli, pNIC28-Bsa4, N-terminal His6 tag removed by TEV, construct 26672 Da
The arrangement: Intact protein LC/MS covalent labelling, fragments in pools of five, 200 uM each, 4 °C. As to conditions: 24 h, 4 °C, pool of five; 200 µM; covalent.

Data set [7] is described as follows: in vitro. Also noted: species or system CCD841, HEK293. As to conditions: human, hb2 cells, read-out: HB-2 Cells Viability (%).

Structures are written as SMILES. Like-named read-outs stand apart in the source and are kept apart here.

T1 sequence (P02769 whole entry): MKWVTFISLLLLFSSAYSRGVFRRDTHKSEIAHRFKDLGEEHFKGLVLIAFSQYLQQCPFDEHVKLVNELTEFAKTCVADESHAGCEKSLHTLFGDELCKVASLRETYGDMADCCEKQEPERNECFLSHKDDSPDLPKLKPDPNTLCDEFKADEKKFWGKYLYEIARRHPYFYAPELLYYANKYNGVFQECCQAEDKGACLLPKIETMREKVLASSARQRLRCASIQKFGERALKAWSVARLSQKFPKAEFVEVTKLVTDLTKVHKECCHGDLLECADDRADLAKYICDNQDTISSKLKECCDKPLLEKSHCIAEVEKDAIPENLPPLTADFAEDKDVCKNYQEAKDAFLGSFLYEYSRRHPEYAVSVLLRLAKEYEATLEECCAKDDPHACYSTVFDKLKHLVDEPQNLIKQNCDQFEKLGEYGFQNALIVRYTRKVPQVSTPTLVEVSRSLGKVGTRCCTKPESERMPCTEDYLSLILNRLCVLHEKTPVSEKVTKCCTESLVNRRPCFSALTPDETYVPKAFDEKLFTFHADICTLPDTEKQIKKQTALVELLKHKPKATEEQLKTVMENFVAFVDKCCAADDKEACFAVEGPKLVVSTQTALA
T3 sequence (Q92831 whole entry): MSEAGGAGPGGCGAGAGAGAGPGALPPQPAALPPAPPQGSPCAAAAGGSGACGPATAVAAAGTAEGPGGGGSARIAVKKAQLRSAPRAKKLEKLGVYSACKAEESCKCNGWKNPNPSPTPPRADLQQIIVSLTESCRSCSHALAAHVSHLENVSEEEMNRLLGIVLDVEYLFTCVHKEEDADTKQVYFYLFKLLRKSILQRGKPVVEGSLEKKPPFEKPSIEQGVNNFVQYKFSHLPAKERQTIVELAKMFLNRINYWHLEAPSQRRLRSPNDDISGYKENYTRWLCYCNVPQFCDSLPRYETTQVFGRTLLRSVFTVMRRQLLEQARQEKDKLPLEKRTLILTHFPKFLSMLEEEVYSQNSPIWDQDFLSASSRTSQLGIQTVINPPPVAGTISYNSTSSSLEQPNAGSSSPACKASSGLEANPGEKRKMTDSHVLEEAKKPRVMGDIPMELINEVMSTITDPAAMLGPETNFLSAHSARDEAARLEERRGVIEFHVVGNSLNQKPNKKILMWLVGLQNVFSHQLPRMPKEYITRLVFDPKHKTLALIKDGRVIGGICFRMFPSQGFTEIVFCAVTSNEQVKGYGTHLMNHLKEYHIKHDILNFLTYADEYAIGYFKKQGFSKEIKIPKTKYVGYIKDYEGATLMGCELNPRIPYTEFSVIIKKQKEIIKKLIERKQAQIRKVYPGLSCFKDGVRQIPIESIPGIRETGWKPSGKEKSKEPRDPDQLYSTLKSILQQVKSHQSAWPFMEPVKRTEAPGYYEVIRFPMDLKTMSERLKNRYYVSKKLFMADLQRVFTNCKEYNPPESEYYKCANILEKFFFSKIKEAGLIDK
T4 sequence (P0C024 14-235): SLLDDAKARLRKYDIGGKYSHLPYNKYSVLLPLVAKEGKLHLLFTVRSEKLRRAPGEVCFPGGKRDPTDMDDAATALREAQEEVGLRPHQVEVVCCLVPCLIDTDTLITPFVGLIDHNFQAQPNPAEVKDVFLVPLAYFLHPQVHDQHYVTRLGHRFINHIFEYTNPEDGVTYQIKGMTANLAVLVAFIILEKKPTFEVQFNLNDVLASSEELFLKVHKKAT

As to `O=C(CCl)NCc1cccs1` [PCM-0102280], the viability at 48 h, 10 µM was 82% in data set [1], 81.3% in data set [2] and 94.3% in data set [7]. The BSA in data set [3] is on record as 0. The same molecule showed an OTUB2 in data set [4] of 0.22. Moreover, in data set [5], the PCAF is on record as 0. Also, the NUDT7 in data set [6] was 0.
Consider `C=CC(=O)Nc1ccc(Cl)cc1` [PCM-0102537], for which the viability at 48 h, 10 µM in data set [1] worked out at 81.5%; in data set [2] it was 89.3%; in data set [7], 95.5%. Further, the BSA in data set [3] was found to be 0. The same molecule had an OTUB2 in data set [4] of 0. Further, in data set [5], the PCAF stood at 0. The NUDT7 in data set [6] turned out to be 0.12.
For `O=C(CCl)NNC(=O)c1ccccc1F` [PCM-0102510], the results for the viability at 48 h, 10 µM in data set [1], in data set [2] and in data set [7] were 93.1%, 72.7% and 98%, respectively. The same molecule registered a BSA in data set [3] of 0. In data set [4], the OTUB2 worked out at 0.52. The same molecule came in with a PCAF in data set [5] of 0. For the same molecule, in data set [6], the NUDT7 worked out at 0.
Regarding `CN(Cc1cnn(C)c1)C(=O)CCl.Cl` [PCM-0102899], the viability at 48 h, 10 µM in data set [1] was found to be 70.7%; in data set [2], 91.9%; in data set [7], 101%. For the same molecule, the BSA in data set [3] is given as 0. Also, the OTUB2 in data set [4] is given as 0.26. Moreover, in data set [5], the PCAF was found to be 0. The same molecule had an NUDT7 in data set [6] of 0.08.
With `C=CC(=O)NCc1nnc(C(C)(C)C)s1` [PCM-0102727], the viability at 48 h, 10 µM came to 100% in data set [1], 108% in data set [2] and 105% in data set [7]. The BSA in data set [3] came to 0. The molecule also yielded an OTUB2 in data set [4] of 0.18. The same molecule registered a PCAF in data set [5] of 0. For the same molecule, the NUDT7 in data set [6] came to 0.
For the molecule `O=C(CCl)Nc1cc(Cl)ccc1Cl` [PCM-0102288], the values for the viability at 48 h, 10 µM in data set [1], in data set [2] and in data set [7] were 38.4%, 70.8% and 40.7%, respectively. Besides, the BSA in data set [3] was 0. In data set [4], this molecule displayed an OTUB2 of 0. The molecule also gave a PCAF in data set [5] of 0. The NUDT7 in data set [6] is on record as 0.06.
With `Cc1csc(NC(=O)CCl)n1.Cl` [PCM-0102872], the viability at 48 h, 10 µM in data set [1] amounted to 91.9%; in data set [2] it was 94.9%; in data set [7], 90.4%. The molecule also returned a BSA in data set [3] of 0. For the same molecule, in data set [4], the OTUB2 came out at 0. In data set [5], this molecule displayed a PCAF of 0. Also, the NUDT7 in data set [6] was determined as 0.16.
Turning to `CCCNC(=O)NC(=O)CCl` [PCM-0102702], the viability at 48 h, 10 µM in data set [1] came out at 82.9%; in data set [2], 91.6%; in data set [7], 91.6%. Besides, the BSA in data set [3] stood at 0. This molecule also yielded an OTUB2 in data set [4] of 0.22. Further, the PCAF in data set [5] was 0. The NUDT7 in data set [6] is 0.
As for `CC1CN(C(=O)CCl)CC(C)O1` (stereo not drawn) [PCM-0102796], the values for the viability at 48 h, 10 µM in data set [1], in data set [2] and in data set [7] were 66.2%, 76.2% and 92.9%, respectively. Besides, in data set [3], the BSA is listed as 0. Moreover, in data set [4], the OTUB2 is recorded as 0. In addition, the PCAF in data set [5] is listed as 0. Further, in data set [6], the NUDT7 worked out at 0.
With `O=C(CCl)NC(=O)NC1CC1` [PCM-0102411], the viability at 48 h, 10 µM in data set [1] is 109%; in data set [2], 84.9%; in data set [7], 96.7%. Moreover, the BSA in data set [3] is 0. Moreover, in data set [4], the OTUB2 worked out at 0. The PCAF in data set [5] turned out to be 0. The same molecule returned an NUDT7 in data set [6] of 0.
Turning to `C=CC(=O)NC1(C(=O)N2CCN(C)CC2)CCCC1` [PCM-0103054], the viability at 48 h, 10 µM in data set [1] is 110%; in data set [2], 109%; in data set [7], 99.9%. For the same molecule, the BSA in data set [3] was 0.08. Also, the OTUB2 in data set [4] is recorded as 0. In addition, in data set [5], the PCAF is listed as 0. In data set [6], this molecule showed an NUDT7 of 0.
Consider `CN(C(=O)CCl)C(C)(C)C#N` [PCM-0102782], for which the viability at 48 h, 10 µM in data set [1] is 77.7%; in data set [2] it was 92.5%; in data set [7] it was 95.9%. The molecule further came in with a BSA in data set [3] of 0. This molecule also yielded an OTUB2 in data set [4] of 0. In data set [5], the PCAF worked out at 0. The NUDT7 in data set [6] is given as 0.
On to `CN(C)S(=O)(=O)c1ccc2c(c1)CCCN2C(=O)CCl` [PCM-0102285], for which the viability at 48 h, 10 µM came out at 2.2% in data set [1], 53.5% in data set [2] and 21.6% in data set [7]. Also, in data set [3], the BSA stood at 0. In addition, the OTUB2 in data set [4] is listed as 0. The same molecule showed a PCAF in data set [5] of 0. Moreover, in data set [6], the NUDT7 is 0.
Turning to `N#CC1(NC(=O)CCl)CCCCCC1` [PCM-0102465], the viability at 48 h, 10 µM in data set [1] was found to be 43.5%; in data set [2], 72.3%; in data set [7] it was 80.7%. The same molecule yielded a BSA in data set [3] of 0. Further, the OTUB2 in data set [4] was 0. The PCAF in data set [5] is reported as 0. Moreover, the NUDT7 in data set [6] stood at 0.
As for `O=C(CCl)N1CCCC1c1ccsc1` (stereo not drawn) [PCM-0102693], the viability at 48 h, 10 µM in data set [1] amounted to 4.6%; in data set [2], 37.7%; in data set [7], 11.7%. This molecule also returned a BSA in data set [3] of 0. Also, in data set [4], the OTUB2 was 0. Also, in data set [5], the PCAF is 0. Also, the NUDT7 in data set [6] was determined as 0.2.
Consider `Cc1nc(-c2ccc3c(c2)CCN3C(=O)CCl)cs1` [PCM-0102901], for which the viability at 48 h, 10 µM in data set [1] stood at 1.2%; in data set [2] it was 22.6%; in data set [7] it was 2.3%. The molecule further registered a BSA in data set [3] of 0. The same molecule had an OTUB2 in data set [4] of 0. In addition, the PCAF in data set [5] is reported as 0. Besides, the NUDT7 in data set [6] stood at 0.46.
`CSc1ccc(NC(=O)CCl)cc1` [PCM-0102772]: the viability at 48 h, 10 µM in data set [1] stood at 3%; in data set [2], 51.2%; in data set [7], 15.2%. The BSA in data set [3] amounted to 0. In data set [4], the OTUB2 was determined as 0.28. Besides, in data set [5], the PCAF was 0. The NUDT7 in data set [6] is 0.13.
As to `COC(=O)C1CN(C(=O)CCl)c2ccccc2O1` (stereo not drawn) [PCM-0102880], the viability at 48 h, 10 µM worked out at 97.5% in data set [1], 96.4% in data set [2] and 112% in data set [7]. Further, in data set [3], the BSA is listed as 0. The molecule further showed an OTUB2 in data set [4] of 0.11. In data set [5], this molecule registered a PCAF of 0. For the same molecule, the NUDT7 in data set [6] came out at 0.
Consider `O=C1CC(C(F)(F)F)N(C(=O)CCl)c2ccccc2N1` (stereo not drawn) [PCM-0102363], for which the figures for the viability at 48 h, 10 µM in data set [1], in data set [2] and in data set [7] were 40.4%, 74.6% and 59.3%, respectively. Further, in data set [3], the BSA is 0.1. In data set [4], this molecule had an OTUB2 of 0. The molecule further showed a PCAF in data set [5] of 0. The molecule further showed an NUDT7 in data set [6] of 0.28.
`C=CC(=O)Nc1cccc(Cl)c1` [PCM-0102961]: the viability at 48 h, 10 µM in data set [1] worked out at 80.4%; in data set [2], 103%; in data set [7], 97.3%. The same molecule had a BSA in data set [3] of 0. This molecule showed an OTUB2 in data set [4] of 0. In data set [5], this molecule showed a PCAF of 0. The molecule also gave an NUDT7 in data set [6] of 0.
For the molecule `C=CC(=O)Nc1ccccc1F` [PCM-0102856], the viability at 48 h, 10 µM in data set [1] came out at 84%; in data set [2], 119%; in data set [7], 106%. Further, in data set [3], the BSA is on record as 0. In addition, in data set [4], the OTUB2 was determined as 0. The same molecule returned a PCAF in data set [5] of 0. The NUDT7 in data set [6] is on record as 0.
For `C=CC(=O)N1CCC(C#N)(c2ccccn2)CC1` [PCM-0102960], the viability at 48 h, 10 µM stood at 104% in data set [1], 110% in data set [2] and 102% in data set [7]. This molecule also registered a BSA in data set [3] of 0. The molecule further yielded an OTUB2 in data set [4] of 0.06. For the same molecule, the PCAF in data set [5] came to 0. The NUDT7 in data set [6] worked out at 0.
As for `C=CC(=O)N1CCc2c(ncn(CC)c2=O)C1` [PCM-0103074], the viability at 48 h, 10 µM in data set [1] amounted to 100%; in data set [2], 115%; in data set [7] it was 101%. Besides, in data set [3], the BSA was 0. The OTUB2 in data set [4] is 0. In data set [5], this molecule came in with a PCAF of 0. For the same molecule, the NUDT7 in data set [6] is 0.
For the molecule `O=C(CCl)NCC1CCCO1` (stereo not drawn) [PCM-0102356], the viability at 48 h, 10 µM in data set [1] amounted to 102%; in data set [2], 104%; in data set [7] it was 91.4%. The BSA in data set [3] is 0. In data set [4], the OTUB2 was found to be 0.05. Further, in data set [5], the PCAF was 0. The molecule also had an NUDT7 in data set [6] of 0.
